Drawing on the SangsterLogP compilation, this text covers logP for 16 molecules.

A short description of data set [1]: method code SF, from DOI: 10.1021/jm00344a020, PMID: 7057427.
Data set [2] in a line: method code SF-AS, from DOI: 10.1021/jm00344a020, PMID: 7057427.

In data set [1], `O=C(NN1CC=CCC1)C1CCCCC1` returned a log partition coefficient (logP) of 0.45.

Molecule `O=C(NN1CC=CCC1)C12CC3CC(CC(C3)C1)C2` gave a logP in data set [2] of 1.45.

In data set [1], `O=C(NC1CCCC1)N1CC=CCC1` displayed a logP of 1.92.

In turn, `O=C(COc1cccc2ccccc12)NN1CC=CCC1` registered a logP in data set [2] of 1.96.

In the case of `O=C(NN1CC=CCC1)C1CCCCCC1`, the lipophilicity (logP) in data set [1] is 1.5.

`CCOC(=O)NN1CC=CCC1` registered a logP in data set [1] of 1.09.

As to `O=C(Cc1cccnc1)NN1CC=CCC1`, the lipophilicity (logP) in data set [2] turned out to be 0.05.

On to `O=C(NN1CC=CCC1)c1cccs1`, for which the logP in data set [2] stood at 1.88.

`CC(C)(C)C(=O)NN1CC=CCC1` registered a logP in data set [2] of 1.03.

For `O=C(NN1CC=CCC1)c1cccc(C(=O)NN2CC=CCC2)n1`, in data set [2], the logP was -0.52.

`O=C(NN1CC=CCC1)C1CC1` showed a logP in data set [1] of 1.12.

With `O=C(NN1CC=CCC1)c1cccc[n+]1[O-]`, the logP in data set [2] was -0.32.

Molecule `CC(=O)NN1CC=CCC1` had a logP in data set [1] of 0.52.

`O=C(COc1ccccc1)NN1CC=CCC1`: the log partition coefficient (logP) in data set [2] is -0.06.

For the molecule `O=C(NN1CC=CCC1)c1ccco1`, in data set [2], the log partition coefficient (logP) turned out to be 0.81.

Take `O=C(Cc1ccc2c(c1)OCO2)NN1CC=CCC1`: the logP in data set [2] was 0.68. This logP and that of the molecule before are within 0.2 log units of each other.
